Where a chain is given by its changes, count along the chain named. “And” between values parts separate entries of the source, which are not always exact repeats. Identical values can stand only once. A value given as a limit tells only on which side of the number the result lay.

Data set [1] concerns the target T1, ACVRL1 (Homo sapiens, UniProt P37023).
T1 construct: purchased ThermoFisher
In words: ThermoFisher (Lantha) kinase assay, inhibition of ACVRL1. It is filed as biochemical. The note with it: in vitro, NA = not active at 1 μM.

A short description of data set [2]: Metabolic stability in mouse liver microsomes. The data set is classed as in vitro ADME. Particulars: some cells add hours in brackets. An excerpt: (§1) Exemplary compounds of the present disclosure have been evaluated for metabolic stability in mouse and human liver microsomes.
Data set [3] in a line: Metabolic stability in human liver microsomes. The data set is classed as in vitro ADME. The note with it: some cells add hours in brackets.
From the text: as §1
On the technique in general: Microsomes from liver hold many membrane-bound enzymes, among them those of drug oxidation.

A short description of data set [4]: Pharmacokinetic study in mice, oral gavage. Particulars: mouse, in vivo, 50 mg/kg oral gavage, n = 4, mean ± SD. The source says: (§2) The present disclosure further provides exemplary pharmacokinetic data for compound CDD-2789.
Data set [5] in a line: Plasma ALT and AST levels in mice after treatment. The data set is classed as in vivo. Particulars: 24 h post-administration, individual mice No. 1-4.
From the text: as §2

The subject of data set [6] is BMP2-induced luciferase activity in 293T-BRE-reporter cells. In words: BMP2-induced luciferase reporter activity in 293T-BRE reporter cells. Particulars: 30 min pre-treatment, 5 ng/ml BMP2, 6 hours. It is filed as cell-based. On the procedure:
BMP2-dependent luciferase reporter activation was quantified after 6 hours using the Promega BrightGLO luciferase system on a Tecan Infinity M1000 Pro plate reader.
FIG. 10 provides a bar graph depicting inhibition of BMP2-induced luciferase activity in 293T-BRE-reporter cells. Approximately 20,000 cells per well were plated in a 96-well plate and allowed to attach overnight. […] Cells were then stimulated with vehicle or 5 ng/ml BMP2 for 6 hours. Luciferase transactivation was assessed using the Promega BrightGLO luciferase system (Promega) and the signal was quantified using a plate reader (M1000 Pro).
(In general: Reporter assays use an easily measured gene product as a stand-in for the process of interest.)

Another data set deals with HepG2 cells. Briefly: Cytotoxicity in HepG2 cells (Cell Titer GLO, cellular ATP). It is filed as cell-based. The note with it: 24 hours, concentrations up to 100 μM. In general terms: ATP-based viability assays read luminescence as a measure of living cells.
The subject of data set [7] is pSMAD1/5 in FOP fibroblasts (FOP GM00513). Briefly: BMP2-induced pSMAD1/5 Western blot in primary FOP fibroblasts. The data set is classed as cell-based, human. Particulars: 1, 5, 25 μM, 30 min pre-treatment, 5 ng/mL BMP2 45 min. On the procedure:
(§3) FIG. 11 depicts inhibition of phosphorylated SMAD1/5 (pSMAD1/5) in primary WT and FOP fibroblasts. […] Subsequently, the fibroblasts were treated with vehicle (i.e., DMSO) or 5 ng/mL BMP2 in the presence of the inhibitors for 45 minutes. Cell lysates were then probed with antibodies against pSMAD1/5, total SMAD5, total SMAD1, and GAPDH (i.e., loading control) using a Western blot.

The test system of data set [8] is pSMAD1/5 in WT fibroblasts (WT GM01652). In words: BMP2-induced pSMAD1/5 Western blot in primary WT fibroblasts. The data set is classed as cell-based, human. Particulars: 1, 5, 25 μM, 30 min pre-treatment, 5 ng/mL BMP2 45 min. On the procedure: as §3
Another data set concerns the target T2, ACVR1 (Homo sapiens, UniProt Q04771).
T2 construct: purchased ThermoFisher
T2 sequence (Q04771 21-509): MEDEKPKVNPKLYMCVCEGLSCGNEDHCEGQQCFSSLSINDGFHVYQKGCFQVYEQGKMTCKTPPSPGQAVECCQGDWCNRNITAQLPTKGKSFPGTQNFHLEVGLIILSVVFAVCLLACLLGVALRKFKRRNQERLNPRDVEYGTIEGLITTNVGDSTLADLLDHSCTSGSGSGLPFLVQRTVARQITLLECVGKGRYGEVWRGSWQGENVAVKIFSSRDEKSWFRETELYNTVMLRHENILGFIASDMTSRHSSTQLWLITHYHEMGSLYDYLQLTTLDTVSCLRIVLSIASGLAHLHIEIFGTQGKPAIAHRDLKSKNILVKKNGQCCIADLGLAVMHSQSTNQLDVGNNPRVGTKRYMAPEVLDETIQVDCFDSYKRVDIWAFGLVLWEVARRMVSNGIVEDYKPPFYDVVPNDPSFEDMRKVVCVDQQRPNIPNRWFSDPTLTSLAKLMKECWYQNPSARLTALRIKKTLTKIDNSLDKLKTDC
Briefly: ThermoFisher (Lantha) kinase assay, inhibition of ACVR1. The data set is classed as biochemical. Particulars: for IC50: ThermoFisher Assay, in vitro.

In a further data set the target is T3, ACVR1^WT (Homo sapiens, UniProt Q04771).
T3 sequence (Q04771 21-509): T2 sequence (Q04771 21-509)
In words: Promega NanoBRET live-cell target engagement, ACVR1. The data set is classed as cell-based. Particulars: in cellulo; NI = No inhibition at 40 μM. The source says:
(§4) The Promega NanoBRET target engagement system involves cell-based competitive displacement of a fluorescent NanoBRET tracer bound reversibly to a NanoLuc fusion protein. Test compounds displace the tracer dependent on their affinity for the target and reduce […] the NanoBRET signal. […]

The target of another data set is T4, ACVR1^R206H (Homo sapiens, UniProt Q04771, R206H).
T4 sequence (Q04771 21-509 R206H): T2 sequence (Q04771 21-509) with R186H
In words: Promega NanoBRET live-cell target engagement, ACVR1 (R206H). The data set is classed as cell-based. Particulars: in cellulo; NI = No inhibition at 40 μM.
From the text: as §4

The target in data set [9] is T1, ACVRL1. Briefly: Promega NanoBRET live-cell target engagement, ACVRL1. The data set is classed as cell-based. Particulars: in cellulo; NI = No inhibition at 40 μM. The source says:
The Promega NanoBRET target engagement system involves cell-based competitive displacement of a fluorescent NanoBRET tracer bound reversibly to a NanoLuc fusion protein. Test compounds displace the tracer dependent on their affinity for the target and reduce loss of the NanoBRET signal.
Further, HEK29T cells with stable expression of a BMP reporter element driving luciferase expression can be used to test inhibition of BMP-induced luciferase transactivation. […] Additionally, utilizing the HEPG2 cell system described herein, responsiveness to activin and induction of Hepcidin (HAMP) gene expression can be probed in the presence and absence of ACVR1 inhibitors, as well as the influence of tacrolimus on activin-induced hepcidin gene expression.
Thus, the in cellulo assays described herein comprise a luciferase reporter cell line system.

For another data set, the target named is T5, BMPR1A (Homo sapiens, UniProt P36894).
T5 construct: purchased ThermoFisher
T5 sequence (P36894 24-532): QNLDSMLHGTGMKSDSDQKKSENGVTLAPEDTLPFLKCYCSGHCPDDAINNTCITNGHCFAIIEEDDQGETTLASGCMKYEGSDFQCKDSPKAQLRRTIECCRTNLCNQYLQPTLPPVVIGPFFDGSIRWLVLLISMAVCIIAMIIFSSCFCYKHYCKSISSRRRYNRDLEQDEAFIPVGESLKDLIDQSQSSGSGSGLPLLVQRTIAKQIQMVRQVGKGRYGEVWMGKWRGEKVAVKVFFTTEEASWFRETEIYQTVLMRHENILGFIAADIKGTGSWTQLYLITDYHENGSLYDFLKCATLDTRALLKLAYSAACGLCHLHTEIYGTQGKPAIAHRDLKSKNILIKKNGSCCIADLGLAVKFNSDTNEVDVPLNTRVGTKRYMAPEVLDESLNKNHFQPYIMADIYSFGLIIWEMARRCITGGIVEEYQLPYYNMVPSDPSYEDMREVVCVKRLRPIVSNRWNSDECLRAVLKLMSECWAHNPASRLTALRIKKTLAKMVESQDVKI
In words: ThermoFisher Lantha kinase screen, BMPR1A. The data set is classed as biochemical. Particulars: in vitro. An excerpt:
(§5) FIGS. 3A-3B depict a representation of KINOMEscan (Eurofins) binding data of CDD-2342 across the human kinome phylogenetic tree (FIG. 3A) and ThermoFisher Lantha kinase screen (FIG. 3B). FIG. 3A: The size of the circles (indicated with lines) are correlated with the affinity of ligand binding (i.e., larger circle, greater binding affinity). […] FIG. 3B: Using the ThermoFisher Lantha kinase screening assay, kinase specificity for ACVR1>ACVRL1>>BMPR1A>BMPR1B was observed.
(§6) Additionally, CDD-2342 is a >1000-fold better inhibitor of ACVR1 than non-TGFβ family kinases (FIGS. 3A-3B).

A further data set deals with T6, BMPR1B (Homo sapiens, UniProt O00238).
T6 construct: purchased ThermoFisher
T6 sequence (O00238 14-502): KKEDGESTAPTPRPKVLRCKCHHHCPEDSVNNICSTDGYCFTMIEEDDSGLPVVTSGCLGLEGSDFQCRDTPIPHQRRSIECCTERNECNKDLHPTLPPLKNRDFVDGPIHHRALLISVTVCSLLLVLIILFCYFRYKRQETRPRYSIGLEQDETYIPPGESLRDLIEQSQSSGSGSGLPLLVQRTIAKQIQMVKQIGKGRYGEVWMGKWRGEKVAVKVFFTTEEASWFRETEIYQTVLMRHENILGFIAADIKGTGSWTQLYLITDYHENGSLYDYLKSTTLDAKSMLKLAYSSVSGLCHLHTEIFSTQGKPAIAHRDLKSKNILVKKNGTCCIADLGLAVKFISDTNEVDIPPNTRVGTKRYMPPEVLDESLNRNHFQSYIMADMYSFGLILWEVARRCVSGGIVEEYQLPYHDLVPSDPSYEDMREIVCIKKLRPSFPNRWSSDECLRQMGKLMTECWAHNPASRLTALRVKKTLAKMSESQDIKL
In words: ThermoFisher Lantha kinase screen, BMPR1B. It is filed as biochemical. Particulars: in vitro.
From the text: as §5, §6

Another data set has as its system human kinome. In words: KINOMEscan (Eurofins) binding across the human kinome. Particulars: tested at a dose of 1 μM.
From the text: as §5

T1 sequence (P37023 22-503): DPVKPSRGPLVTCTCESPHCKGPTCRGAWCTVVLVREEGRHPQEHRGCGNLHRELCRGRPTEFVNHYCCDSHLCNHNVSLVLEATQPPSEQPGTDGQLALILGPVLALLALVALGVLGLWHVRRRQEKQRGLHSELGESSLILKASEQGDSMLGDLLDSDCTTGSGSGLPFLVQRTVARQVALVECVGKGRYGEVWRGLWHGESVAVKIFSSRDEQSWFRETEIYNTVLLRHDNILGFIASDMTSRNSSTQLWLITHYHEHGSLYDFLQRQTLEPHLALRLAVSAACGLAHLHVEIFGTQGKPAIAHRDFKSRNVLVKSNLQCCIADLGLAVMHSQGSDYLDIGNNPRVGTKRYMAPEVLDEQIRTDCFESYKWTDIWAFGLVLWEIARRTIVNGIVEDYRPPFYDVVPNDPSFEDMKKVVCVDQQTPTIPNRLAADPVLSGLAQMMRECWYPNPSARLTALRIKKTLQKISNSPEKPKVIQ

For the compound `COc1cc(-c2nc3ccc(C(=O)NCCCN(C)C)cc3n2C2CCC2)cc(OC)c1OC` [CDD-2789, 1-cyclobutyl-N-(3-(dimethylamino)propyl)-2-(3,4,5-trimethoxyphenyl)-1H-benzo[d]imidazole-6-carboxamide], inhibition on ACVRL1 [1] was half-maximal at 0.0099 µM (IC50). Further, the “Metabolism MLM (Min)” value in [2] is on record as 505 (8.4 h) Min. Besides, in data set [3], the “Metabolism HLM (Min)” value is 2767 (46.1 h) Min. Also, the half-life in data set [4] is roughly 3.42 h. Further, in [5], the “Plasma ALT” value was 21.83 IU/L and 165.48 IU/L and 25.81 IU/L and 23.60 IU/L; the “Plasma AST” value was 30.76 IU/L and 141.26 IU/L and 42.08 IU/L and 55.52 IU/L. Besides, the “inhibition of BMP2-induced luciferase activity” value in data set [6] (0.2, 1, 5, 25 μM) is reported as “Potent inhibition”. In addition, the “cytotoxicity (cell viability, cellular ATP)” value with HepG2 cells is “no cytotoxicity”. The “suppression of BMP2-induced pSMAD1/5 activation, FOP fibroblasts” value in data set [7] was “suppressed”. Also, the “suppression of BMP2-induced pSMAD1/5 activation, WT fibroblasts” value in data set [8] is on record as “suppressed”.

Turning to `CNC(=O)[C@H]1C[C@H](n2c(-c3cc(OC)ccc3OC)nc3ccc(C(=O)NCCCN(C)C)cc32)C1` [CDD-2687, 2-(2,5-dimethoxyphenyl)-N-(3-(dimethylamino)propyl)-1-((1r,3r)-3-(methylcarbamoyl)cyclobutyl)-1H-benzo[d]imidazole-6-carboxamide], the IC50 is 0.0251 µM against ACVR1; 0.0787 µM at ACVRL1 [1]; greater than 40 µM on ACVR1^WT; greater than 40 µM against ACVR1^R206H; greater than 40 µM against ACVRL1 [9].

“N-(3-(4-benzoylpiperazin-1-yl)propyl)-1-cyclobutyl-2-(3,4,5-trimethoxyphenyl)-1H-benzo[d]imidazole-6-carboxamide [CDD-2791]”: the IC50 at ACVR1 was 0.0079 µM; on ACVRL1 [1], 0.0146 µM; against ACVR1^WT it was 1.08 µM; against ACVR1^R206H, 2.6 µM; against ACVRL1 [9], greater than 40 µM. Also, the “Metabolism MLM” value in data set [2] was 2.8 min. Also, the “Metabolism HLM” value in data set [3] is 15.4 min.

In the case of `CNC(=O)[C@H]1C[C@H](n2c(-c3cc(OC)cc(OC)c3)nc3ccc(C(=O)NCCCN(C)C)cc32)C1` [CDD-2686, 2-(3,5-dimethoxyphenyl)-N-(3-(dimethylamino)propyl)-1-((1r,3r)-3-(methylcarbamoyl)cyclobutyl)-1H-benzo[d]imidazole-6-carboxamide], the IC50 against ACVR1 was 0.0343 µM; at ACVRL1 [1], 0.0722 µM; against ACVR1^WT it was 28.2 µM; against ACVR1^R206H it was 29.6 µM; at ACVRL1 [9], greater than 40 µM.

In the case of `COc1cc(-c2nc3ccc(C(=O)NCCCN4CCN(c5cccc(C)c5C)CC4)cc3n2C2CCC2)cc(OC)c1OC` [CDD-2342, 1-cyclobutyl-N-(3-(4-(2,3-dimethylphenyl)piperazin-1-yl)propyl)-2-(3,4,5-trimethoxyphenyl)-1H-benzo[d]imidazole-6-carboxamide], at ACVR1 (FIGS. 3A-3B), the “fold better inhibitor of ACVR1 than non-TGFβ family kinases” value is greater than 1000 fold. Moreover, the IC50 was 0.0061 µM on ACVR1; 0.0188 µM at ACVRL1 [1]; 0.257 µM on BMPR1A; 0.687 µM on BMPR1B; 0.83 µM and 0.81 µM against ACVR1^WT; 1.47 µM and 1.48 µM against ACVR1^R206H. In addition, the IC50 against ACVRL1 [9] is 11.1 µM and 11.4 µM. In addition, at ACVR1 (ThermoFisher Lantha kinase screening assay, FIG. 3B), the “kinase specificity (rank order)” value is on record as “ACVR1>ACVRL1>>BMPR1A>BMPR1B”. Also, in data set [2], the “Metabolism MLM” value came out at 0 min. The “Metabolism HLM” value in data set [3] came out at 0.5 min. The “inhibition of BMP2-induced reporter activity” value in [6] (1 μM, 5 μM, 10 μM) is recorded as “significantly inhibits”. Moreover, in the data set on human kinome, the “off-target binding across the human kinome” value was “minimal off-target binding”.

What is called IC50 is the concentration needed to halve the response being measured. Higher therefore signals weaker potency in that assay. The half-life is the time in which the quantity being followed falls by half. High values mean slow loss, low ones fast loss.

Values taken from patent US20260217660A1, “INHIBITORS OF ACTIVIN RECEPTOR TYPE I (ACVRI) AND ACTIVIN RECEPTOR LIKE TYPE I (ACVRLI), AND METHODS USING SAME” (Baylor College of Medicine, priority 2023, published 2026).
